Test results reported in patent US8586638B2, “Parakeratosis inhibitor and skin preparation for external use” (priority 2003, dated 2013).
Where a SMILES comes first, the peptide text is derived from it.

Tests used:
[1] = system: skin roughness caused by oleic acid on the back of hairless mice; test: Inhibitory effect on skin roughness by the application of oleic acid (TEWL value); assay type: in vivo, hairless mice (HR-1); set-up: ΔTEWL: unit not given here; conditions: for ΔTEWL: after 10 weight % oleic acid, 3 days, four mice per group, control 12.0; for decrease of delta-TEWL value as compared to the control solution (conclusion from Table 6): hairless mice, oleic acid, seventh embodiment
Method: To study the inhibitory effect on the skin roughness by the application of oleic acid by the glycine derivatives and the salts thereof as well as the aminosulfuric acid derivatives and the salts thereof in accordance with the invention 2, the […] (TEWL value) before and after the application was measured to compare the difference therebetween with the value of control (control solution) in order to determine the effect. The preparation of samples and the application procedure were in accordance with the embodiment 4. The TEWL value was measured by means of TEWA meter TM210 (Courage+Khazaka Inc.).
100 microliters of 10 weight % oleic acid (solvent: ethanol) was applied to the back of hairless mice (HR-1, four in each group). Thereafter, 100 microliters of sample solutions (glycine derivatives and the salts thereof as well as the aminosulfuric acid derivatives and the salts thereof) in accordance with the invention 2 were applied at each time. This procedure was repeated for 3 days. The day after the application, TEWL value of the back of mice was measured and the values were averaged. The larger delta-TEWL value indicates severer aggravation of skin roughness.

[2] = system: parakeratosis and skin roughness caused by oleic acid on the back of hairless mice; test: Parakeratosis inhibition effect test: oleic acid applied to the back of hairless mice, visual skin roughness and parakeratosis level; assay type: in vivo, hairless mice (HR-1); set-up: key to Evaluation Visual (mean of 4 mice), skin roughness: 0.0 = no roughness, 2.0 = control application; 0.25 steps; conditions: for Evaluation Parakeratosis (mean of 4 mice): range 1.0 to 3.0, higher = severer, control 2.0; for Evaluation Visual (mean of 4 mice), skin roughness: score 0.0 no roughness, 2.0 control; for effect of inhibiting parakeratosis (conclusion from Table 4) / effect of inhibiting parakeratosis (conclusion from Table 1): hairless mice, oleic acid; for effect of inhibiting parakeratosis (conclusion from Table 4): fourth embodiment; for effect of inhibiting parakeratosis (conclusion from Table 1): first embodiment
Method: A 3 weight % water solution (including 30 weight % ethanol) was prepared as the evaluation specimen of the glycine derivatives in accordance with the invention 1. The pH was regulated to the range between 7.0 to 7.5, by using hydrochloric acid and sodium hydroxide. When the solubility was low, the solution was adjusted accordingly.
100 microliters of 10 weight % oleic acid (solvent: ethanol) was applied to the back of hairless mice (HR-1, Hoshino laboratory animals). Thereafter, 100 microliters of sample solution was applied (glycine derivatives in accordance with said invention 1) at each time. This procedure was repeated for 3 days. The day after the application, the skin condition of the backs was observed by using a CCD camera to evaluate the skin roughness (stratified ablation of the skin surface stratum corneum and red spots). The skin condition was evaluated visually, with scoring the skin condition of control application to 2.0 and the skin condition of no roughness to 0.0, in a 0.25 point step in response to the skin condition. At the same time, the skin surface stratum corneum of the back of hairless mice was peeled off by using a tape for staining the nucleus with haematoxylin to observe the degrees of parakeratosis (parakeratosis level) and evaluate in 0.25 step in the range from 1.0 to 3.0. The higher evaluation points indicates the larger number of parakeratotic corneocytes count, i.e., severer parakeratosis.
The samples to be evaluated of the glycine derivatives and the salts thereof as well as the aminosulfuric acid derivatives and the salts thereof in accordance with the invention 2 were prepared mainly 3 weight % solution (including 30 weight % ethanol, excluding Hydantoic acid and ACES which include 20 weight % ethanol). pH was regulated by using hydrochloric acid or sodium hydroxide to be 7.0 to 7.5. When the solubility was low, then the solution was prepared accordingly.
100 microliters of 10 weight % oleic acid (solvent: ethanol) was applied to the back of Hairless mice (HR-1, Hoshino laboratory animals) Thereafter, 100 microliters of sample solution (glycine derivatives in accordance with the invention 2) was applied thereon at each time. This procedure was repeated for 3 days. The day after the application, the skin condition of the backs was observed by using a CCD camera to evaluate the skin roughness (stratified ablation of the skin surface stratum corneum and red spots). The skin condition was evaluated visually, with scoring the skin condition of control application to 2.0 and the skin condition of no roughness to 0.0, in a 0.25 point step in response to the skin condition. At the same time, the skin surface stratum corneum of the back of hairless mice was peeled off by using a tape for staining the nucleus with haematoxylin to observe the degrees of parakeratosis and evaluate in 0.25 step in the range from 1.0 to 3.0. The higher evaluation points indicates the larger number of parakeratotic corneocytes count, i.e., severer parakeratosis.

[3] = sample 3 weight %, larger = severer roughness
[4] = Table 4, sample 3 weight % in aqueous 30 weight % ethanol (hydantoic acid: 20 weight % ethanol)
[5] = sample 3 weight % in aqueous 30 weight % ethanol, after 10 weight % oleic acid, 3 days
[6] = sample 1 weight % in aqueous 30 weight % ethanol, after 10 weight % oleic acid, 3 days

| Structure (SMILES) | ΔTEWL [1, 3] | Evaluation Parakeratosis (mean of 4 mice) [2, 4] | Evaluation Visual (mean of 4 mice), skin roughness [2, 4] | effect of inhibiting parakeratosis (conclusion from Table 1) [2] | Evaluation Parakeratosis (mean of 4 mice) [2, 5] | Evaluation Visual (mean of 4 mice), skin roughness [2, 5] | further results |
| --- | --- | --- | --- | --- | --- | --- | --- |
| O=S(=O)(O)CCCCNC1CCCCC1 [CABS, 4-(cyclohexylamino)-1-butane sulfonic acid, reference compound] | 11.9 | 2.0 | 1.9 |  |  |  | effect of inhibiting parakeratosis (conclusion from Table 4) [2]: effect was not recognized |
| O=S(=O)(O)CCNC1CCCCC1 [CHES, 2-(N-cyclohexylamino)ethane sulfonic acid, reference compound] | 12.3 | 1.9 | 1.8 |  |  |  | effect of inhibiting parakeratosis (conclusion from Table 4) [2]: effect was not recognized |
| O=S(=O)(O)CCCN1CCOCC1 [MOPS, 3-(N-morpholino)propane sulfonic acid, reference compound] | 13.2 | 2.1 | 1.9 |  |  |  | effect of inhibiting parakeratosis (conclusion from Table 4) [2]: effect was not recognized |
| CN(C)CC(=O)O [N,N-dimethylglycine, reference compound] | 15.5 | 2.3 | 2.1 |  |  |  |  |
| CC(=O)N[C@@H](CC(=O)O)C(=O)O [N-acetyl-L-aspartic acid] |  |  |  | have the effect of inhibiting parakeratosis | 1.5 | 1.4 |  |
| CC(=O)NCC(=O)O [N-acetylglycine, reference compound] | 14.7 | 2.0 | 1.9 |  |  |  |  |
| O=C(O)CC[C@H](NS(=O)(=O)c1ccccc1)C(=O)O [N-benzenesulfonyl-L-glutamic acid, N-benzene-sulfonyl-L-glutamic acid] |  |  |  | have the effect of inhibiting parakeratosis | 1.6 | 1.6 |  |
| O=C(O)CC[C@H](NC(=O)c1ccccc1)C(=O)O [N-benzoyl-L-glutamic acid] |  |  |  | have the effect of inhibiting parakeratosis | 1.6 | 1.7 |  |
| O=S(=O)(O)CCCNC(CO)(CO)CO [TAPS, N-tris(hydroxymethyl)methyl-3-aminopropane sulfonic acid, reference compound] | 12.0 | 2.1 | 2.0 |  |  |  | effect of inhibiting parakeratosis (conclusion from Table 4) [2]: effect was not recognized |
| CCOC(=O)CCN.Cl [beta-alanine ethyl ester HCL, beta-alanine ethyl-ester hydrochloride] |  |  |  | have the effect of inhibiting parakeratosis | 1.2 | 1.0 |  |
| C[N+](C)(C)CC(=O)O [betaine, reference compound] | 10.6 | 1.8 | 1.8 |  |  |  |  |
| O=C(O)CN(CCO)CCO [bicine, reference compound] | 12.0 | 2.0 | 1.9 |  |  |  |  |
| CCOC(=O)CN1CCCCC1 [ethyl-1-piperidine acetate, reference compound] | 10.7 | 1.9 | 1.8 |  |  |  |  |
| NCC(N)=O [glycine amide, reference compound] |  |  |  |  | 2.1 | 1.9 |  |
| Cl.NCC(=O)OCc1ccccc1 [glycine benzyl ester HCL, glycine benzyl ester hydrochloride] |  |  |  | have the effect of inhibiting parakeratosis | 1.2 | 1.3 |  |
| CCOC(=O)CN.Cl [glycine ethyl ester HCL, glycine ethyl ester hydrochloride] |  |  |  | have the effect of inhibiting parakeratosis | 1.1 | 1.2 |  |
| CCCCOC(=O)CN.Cl [glycine n-butyl ester HCL, glycine n-butyl ester hydrochloride] |  |  |  | have the effect of inhibiting parakeratosis | 1.5 | 1.6 |  |
| CCCOC(=O)CN.Cl [glycine n-propyl ester HCL, glycine n-propyl ester hydrochloride] |  |  |  | have the effect of inhibiting parakeratosis | 1.4 | 1.4 |  |
| CC(C)(C)OC(=O)CN.Cl [glycine t-butyl ester HCL, glycine t-butyl ester hydrochloride] |  |  |  | have the effect of inhibiting parakeratosis | 1.5 | 1.6 |  |
| Cl.NCC(N)=O [glycine-amide HCL, glycine-amide hydrochloride, reference compound] | 12.4 | 2.0 | 1.9 |  |  |  | effect of inhibiting parakeratosis (conclusion from Table 4) [2]: did not exhibit such effect |
| NCC(=O)NCC(=O)NCC(=O)O [glycyl-glycylglycine, reference compound] (H-Gly-Gly-Gly-OH) |  |  |  |  |  |  | Evaluation Parakeratosis (mean of 4 mice) [2, 6]: 2.0; Evaluation Visual (mean of 4 mice), skin roughness [2, 6]: 1.9 |
| CCOC(=O)CNC(=O)CN.Cl [glycylglycine ethyl ester HCL, glycylglycine ethyl ester hydrochloride salt] | 6.7 | 1.1 | 1.3 |  |  |  | decrease of delta-TEWL value as compared to the control solution (conclusion from Table 6) [1]: significant decrease of delta-TEWL value; effect of inhibiting parakeratosis (conclusion from Table 4) [2]: have the effect of inhibiting parakeratosis |
| N=C(N)N1CCC(C(=O)O)CC1 [guanidinoisonipecotinic acid, reference compound] |  |  |  |  | 2.2 | 2.0 |  |
| O=C(O)C1CCNCC1 [isonipecotinic acid, isonipecotic acid] |  |  |  | have the effect of inhibiting parakeratosis | 1.5 | 1.6 |  |
| O=C(O)CNC(=O)c1cccnc1 [nicotinoylglycine, N-nicotinoylglycine] |  |  |  |  |  |  | decrease of delta-TEWL value as compared to the control solution (conclusion from Table 6) [1]: significant decrease of delta-TEWL value; ΔTEWL ([1]; sample 0.1 weight %): 7.4 |
